In general, IC50 refers to the point on the concentration scale where inhibition reaches its midpoint.

Consider 1 molecule from paper PMC9570995, “Design, Synthesis, and Biological Evaluation of Novel Dihydropyridine and Pyridine Analogs as Potent Human Tissue Nonspecific Alkaline Phosphatase Inhibitors with Anticancer Activity: ROS and DNA Damage-Induced Apoptosis” (Molecules, 2022).

The target of this assay is T1, human tissue nonspecific alkaline phosphatase (h-TNAP) (Homo sapiens, UniProt P05186).
T1 sequence (P05186 18-524): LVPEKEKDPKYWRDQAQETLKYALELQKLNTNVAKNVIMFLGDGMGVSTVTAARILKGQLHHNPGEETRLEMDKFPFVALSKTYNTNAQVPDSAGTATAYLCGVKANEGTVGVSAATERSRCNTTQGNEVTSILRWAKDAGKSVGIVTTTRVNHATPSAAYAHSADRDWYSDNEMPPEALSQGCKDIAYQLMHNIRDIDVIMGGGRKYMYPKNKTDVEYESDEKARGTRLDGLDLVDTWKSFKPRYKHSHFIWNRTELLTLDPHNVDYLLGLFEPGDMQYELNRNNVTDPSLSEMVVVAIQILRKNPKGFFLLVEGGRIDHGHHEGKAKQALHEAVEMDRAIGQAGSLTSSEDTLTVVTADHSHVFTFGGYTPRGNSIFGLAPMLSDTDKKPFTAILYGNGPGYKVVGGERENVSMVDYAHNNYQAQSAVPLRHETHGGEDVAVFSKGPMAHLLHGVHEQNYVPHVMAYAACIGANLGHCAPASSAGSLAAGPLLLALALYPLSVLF
Nature of the assay: Alkaline phosphatase inhibition assay (p-NPP substrate). Type of assay: biochemical. Here is the method: The newly synthesized compounds were tested against human tissue nonspecific alkaline phosphatase (h-TNAP). The compounds were initially tested against the h-TNAP enzymes at 1 mM concentration. The assay buffer (pH 9.5) constituted of 50% glycerol, followed by tris-hydrochloride (50.0 mM), MgCl2 (5.0 mM), and ZnCl2 (0.1 mM) in the solution. The enzyme substrate p-nitrophenyl phosphate (p-NPP) and all the required test compounds were diluted to the required concentration by a dilution buffer method. In a 96-well plate, the assay was started by adding 70 µL of assay buffer followed by 10.0 µL of the test compound (from 1 mM), 10.0 µL of the enzyme (0.5 µL/mL) and then subsequently incubating at 37 °C for 10 min. The reaction was initiated with the addition of 10.0 µL of substrate (5.0 mM p-NPP) into each well and incubated for an additional 30 min.
Percent inhibition was calculated by the formula:% Inhibition = [100 − (abs of test comp/abs of control) × 100]

Read-outs that look alike come from different tables or passages of the source.

As to `N#CC1=C(N)N(Cc2ccccc2)C(N)=C(C#N)C1c1ccc2ccccc2c1` [Compound 4d, 2,6-Diamino-1-benzyl-4-(naphthalen-2-yl)-1,4-dihydropyridine-3,5-dicarbonitrile], the IC50 (Table 2, unit given in Table 1, read-out: Alkaline Phosphatase (h-TNAP) IC50) was determined as 1320 ± 260 nM; the IC50 (h-TNAP, assay buffer pH 9.5, Table 1 and text, read-out: IC50 + SEM) is 1320 ± 260 nM. Further, the “fold more potent than levamisole” value (h-TNAP IC50 compared with levamisole) is given as “about seventeen-fold”.
